# Results as given in US20250270227A1, “CAMPTOTHECIN DERIVATIVE, AND PHARMACEUTICAL COMPOSITION AND USE THEREOF” (SIMCERE ZAIMING PHARMACEUTICAL CO., LTD., priority 2021, published 2025).
# Read-outs that look alike come from different tables or passages of the source.
# Legend:
# [1] = Metabolic stability in liver microsomes; assay type: in vitro ADME, human; details: for half-life at 1 μM: human, microsomes
# Method: The metabolic stability of the compounds of the present disclosure in liver microsomes was determined by the following experimental method.
# • 1. Human liver microsomes (Corning 452117), Beagle dog liver microsomes (XENOTECH D1000), SD rat liver microsomes (XENOTECH R1000) and CD-1 mouse liver microsomes (XENOTECH M1000) • 2. Na2HPO4 (Tianjin Guangfu Fine Chemical Research Institute 20180130) • 3. KH2PO4 (Tianjin Guangfu Fine Chemical Research Institute 20180920) • 4. MgCl2 (Tianjin Guangfu Fine Chemical Research Institute 20191216) • 5. NADPH (Solarbio 1216C022) • 6. Positive control compound verapamil (Sigma MKBV4993V) • 7. AB Sciex API4000 liquid chromatography-mass spectrometry
# • 1. Preparation of 100 mM phosphate buffered saline (PBS): 7.098 g of Na2HPO4 was weighed, 500 mL of pure water was added and subjected to ultrasonic dissolution to obtain solution A. 3.400 g of KH2PO4 was weighed, 250 mL of pure water was added and subjected to ultrasonic dissolution to obtain solution B. Solution A was placed on a stirrer and solution B was slowly added until the pH value reached 7.4 to prepare 100 mM PBS buffer. • 2. Preparation of reaction system
# The reaction system was prepared according to the following table:
# • 3. The reaction system was placed in a 37° C. water bath and pre-incubated for 10 min. 40 μL of 10 mM NADPH solution (NADPH was dissolved in 100 mM phosphate buffer) was added to the reaction system with the final concentration of NADPH being 1 mM. 40 μL of phosphate buffer was used instead of NADPH solution as negative control. The role of the negative control was to exclude the effect of the chemical stability of the compounds themselves. • 4. 4 μL of 100 μM compound of the present disclosure and the positive control compound verapamil were added to the reaction system to initiate the reaction, with the final concentration of the compound being 1 μM. • 5. After thorough mixing on a vortex oscillator, 50 μL of the incubated sample was taken out at 0.5 min, 15 min, 30 min, 45 min and 60 min, respectively, and the reaction was stopped with 200 μL of glacial acetonitrile containing internal standard. The sample was centrifuged at 3220 g for 45 min. […]
# All the data was calculated by the Microsoft Excel software. The peak area was detected by extracting the ion chromatogram. The in vitro half-life (t1/2) of the compound was determined by performing linear fitting of the natural logarithm of elimination percent of the compound and time.
# The in vitro half-life (t1/2) was calculated by means of the slope k: […]
# The in vitro intrinsic clearance (unit: μL/min/mg protein) was calculated using the following equation: […]
# [2] = Plasma protein binding rate (equilibrium dialysis); assay type: in vitro ADME, human; details: pH 7.4
# Method: The protein binding rates of the compounds of the present disclosure in human and mouse plasma were determined by the following experimental method.
# • 1. Human plasma (BioIVT), CD-1 mouse plasma (BiolVT) • 2. Na2HPO4 (Sigma S5136-500G) • 3. NaH2PO4 (Sigma 53139-500G) • 4. NaCl (Sigma S5886-IKG) • 5. 96-well equilibrium dialysis plate (HTDialysis LLC, Gales Ferry, CT, HTD96B) and equilibrium dialysis membrane (MWCO 12-14K, 1101) • 6. Positive control compound warfarin • 7. ABI QTrap 5500 liquid chromatography-mass spectrometry
# • 1. Preparation of a buffer with a concentration of 100 mM sodium phosphate and 150 mM NaCl: An alkaline solution with a concentration of 14.2 g/L Na2HPO4 and 8.77 g/L NaCl was prepared with ultrapure water, and an acidic solution with a concentration of 12.0 g/L NaH2PO4 and 8.77 g/L NaCl was prepared with ultrapure water. Then the alkaline solution was titrated to pH 7.4 with the acidic solution to prepare a buffer with a concentration of 100 mM sodium phosphate and 150 mM NaCl. • 2. Preparation of dialysis membrane: The dialysis membrane was soaked in ultrapure water for 60 min to separate the membrane into two pieces, then soaked in 20% ethanol for 20 min, and finally soaked in a buffer used for dialysis for 20 min. • 3. Preparation of plasma: The frozen plasma was quickly thawed at room temperature, and then centrifuged at 3220 g for 10 min at 4° C. to remove clots, and the supernatant was collected into a new centrifugal tube. The pH of the plasma was determined and recorded, and the plasma with pH of 7-8 was used. • 4. Preparation of compound-containing plasma samples: The 10 mM stock solution of the compound of the present invention or the positive control compound was diluted with DMSO to obtain a 200 μM working solution. To 597 μl of human or mouse plasma was added 3 μl of 200 μM compound working solution to obtain a plasma sample with a final concentration of 1 μM. • 5. […]
# The peak areas of the compound on the buffer side and the plasma side were determined. […]
# [3] = pH 7.4, human liver microsomes 0.5 mg/mL, 1 μM compound, 1 mM NADPH, 37° C., read-out: Stability in human liver microsomes t1/2
Structure (SMILES),"half-life at 1 μM [1, 3]","fraction unbound at 6 h, 1 μM ([2]; human plasma, 1 μM, equilibrium dialysis 6 h, 37° C., read-out: % Human plasma protein binding rate (converted))","Stability in human liver microsomes t1/2 ([1]; human liver microsomes 0.5 mg/mL, 1 μM compound, 1 mM NADPH, 37° C.)",half-life at 1 μM ([1]; pH 7.4),"fraction unbound at 6 h, 1 μM ([2]; human, plasma)"
"CC[C@@]1(O)C(=O)OCc2c1cc1n(c2=O)Cc2c-1nc1cc3c(cc1c2CNC(=O)C(O)C1CC1)OCO3 (single isomer, unassigned) [Compound 14-P1]",1.1 h,0.106,–,–,–
"CC[C@@]1(O)C(=O)OCc2c1cc1n(c2=O)Cc2c-1nc1cc3c(cc1c2CNC(=O)C(O)C1CC1)OCO3 (single isomer, unassigned) [Compound 14-P2]",–,–,0.835 h,–,–
"CC[C@@]1(O)C(=O)OCc2c1cc1n(c2=O)Cc2c-1nc1cc3c(c(F)c1c2CNC(=O)[C@@H](O)C1CC1)OCO3 (single isomer, unassigned) [Compound 37-P1]",–,–,–,1.75 h,0.128
"[2H]C1([2H])Oc2cc3nc4c(c(CNC(=O)C(O)C5CC5)c3cc2O1)Cn1c-4cc2c(c1=O)COC(=O)[C@]2(O)CC (stereo partly drawn) [Compound 39, 2-cyclopropyl-N-(((S)-7-ethyl-7-hydroxy-8,11-dioxo-7,8,11,13-tetrahydro-10H-[1,3]dioxolo[4,5-g]pyrano[3′,4′:6,7]indolizino[1,2-b]quinolin-14-yl-2,2-d2)methyl)-2-hydroxyacetamide]",4.01 h,–,–,–,0.081
